In brackets after ≈: the same amount, converted by molar mass.
How the values were obtained:
[1] = Hepatic and renal toxicity (ALT, BUN) in infected mice; type: in vivo, mouse; details: 30 mg/kg i.p., every 12 h for 3 days
Procedure: Deep-seated mouse thigh infection model. In vivo efficacy of bithionol alone or in combination with gentamicin against MRSA strain MW2 persisters was evaluated using a previously described neutropenic mouse thigh infection model with modifications. Six-week-old female CD-1 mice (20-25 g, Charles River Laboratories, Wilmington, Mass., USA) were rendered neutropenic by administering 150 mg/kg and 100 mg/kg of cyclophosphamide intraperitoneally (i.p.) at 4 days and 1 day before infection, respectively. On the day of infection, overnight culture of S. aureus MW2 were washed 3 times with sterile saline and diluted to ˜10^4 CFU/mL in saline. 50 μl of the diluted culture was injected to the right thigh of each mouse. Bithionol was dissolved in Kolliphor EL (Sigma-Aldrich, St Louis, Mo., USA)/ethanol 1:1 and then diluted 1:10 in saline to a final concentration of 30 mg/kg. […] The levels of alanine aminotransferase and blood urea nitrogen were analyzed with commercially available kits, following the manufacturer's protocol (Pointe Scientific, Canton, Mich., USA) to evaluate hepatic and renal toxicities. […] Statistical significance among each group in animal studies was analyzed by one-way ANOVA with post-hoc Tukey test using GraphPad Prism 7 (GraphPad Software, La Jolla, Calif., USA).

[2] = system: human erythrocytes; details: 1 h
[3] = system: MRSA MW2 biofilm persisters; test: Biofilm persister killing assay; type: cell-based, S. aureus
Procedure: Biofilm persister killing assay. An overnight culture of S. aureus MW2 cells was diluted 1:200 with TSB supplemented with 0.2% glucose and 3% NaCl. A 13 mm diameter Millipore mixed cellulose ester membrane (EMD Millipore GSWP01300) was placed at the bottom of each well of a 12-well assay plate (Falcon 353043). […] was added to each well and statically incubated at 37° C. for 24 h. The membranes were washed 3-times with PBS and transferred to a fresh 12-well plate, 1 mL PBS containing the desired concentration of antibiotics was added to each well, and then the plate was statically incubated at 37° C. for 24 h, The membranes were washed 3 times with PBS, placed in 2-mL microcentrifuge tubes containing 1 mL PBS, and sonicated in an ultrasonic bath (Fisher Scientific FS 30) for 10 min. The sonicated samples were serially diluted, spot-plated on TSA to enumerate the number of live cells. The experiment was conducted in biological triplicate.

[4] = system: MRSA BF2; test: MIC assay (micro-dilution); type: cell-based, S. aureus; details: Staphylococcus aureus
Procedure: Minimal inhibitory concentration (MIC) assay. The MICs of antibiotics were determined by the standard micro-dilution method recommended by the Clinical and Laboratory Standards Institute. MIC assays were conducted in biological triplicate.
Antimicrobial activity of each analog was tested against four MRSA strains (MW2, BF1, BF2, and BF3), Pseudomonas aeruginosa (PA14), Klebsiella pneumonia (WGLW2), and Acinetobacter baumannii (ATCC 17978).

[5] = system: HKC-8 human renal proximal cells; test: Mammalian membrane permeability assay (SYTOX Green); type: cell-based; details: up to 64 μg/mL
Procedure: Mammalian membrane permeability assay. Human renal proximal tubular epithelial cells (HKC-8) were grown in Dulbecco' s modified Eagle F-12 media mixed 1:1 with Ham's F-12 (DMEM/F-12, Life Technologies, Carlsbad, Calif., USA) supplemented with 10% FBS and 4 mM L-glutamine at 37° C. in 5% CO2. For membrane permeability assays, HKC-8 was cultured in black, clear-bottom, 96-well plates (Corning no. 3904) in 100 μl/well of the growth media to reach ˜70% confluence. After washing the cells twice with PBS, 50 μl of 0.25 μM SYTOX Green was added to each well. After incubating the cells at 37° C. in 5% CO2 for 15 min, the cells were treated with a range of concentrations of bithionol or the cholesterol binding detergent saponin (positive control). Fluorescence was measured at room temperature using a spectrophotometer (SpectraMax M2, Molecular Devices) with excitation and emission wavelengths of 485 nm and 525 nm, respectively. The assay was carried out in biological duplicate.
To visualize HKC-8 cells with compromised membranes, HKC-8 was cultured in 24-well plates (Corning no. 3527) until —70% confluence. After washing the cells twice with PBS, 500 μl of 1 μM SYTOX Green was added to each well. The cells were incubated at 37° C. in 5% CO2 for 15 min and then treated with 32 μg/mL (final concentration) bithionol or saponin for 1 h. […]

SMILES: Oc1c(Cl)cc(Cl)cc1Sc1cc(Cl)cc(Cl)c1O [bithionol, 6,6′-thio-bis-(2,4-dichlorophenol)]
- hepatic or renal toxicity (ALT and BUN) [1]: no signs of hepatic or renal toxicity
- HC50 [2]: > 64 µg/mL
- time to complete eradication of biofilm persisters ([3]; 32 μg/mL (32× MIC)): ≤ 24 h
- concentration completely eradicating biofilm persisters ([3]; 24 h treatment): 32 µg/mL
- MIC [4]: 0.5 µg/mL (≈ 1.4 µM)
- SYTOX Green membrane permeabilization of HKC-8 cells [5]: did not induce SYTOX Green membrane permeabilization

From US20220324796A1, “ANTIBIOTIC COMPOUNDS” (The General Hospital Corporation, priority 2019, published 2022)
